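Cultured in 96-well plates, cells were exposed to test compound for 48 hours across five concentrations. The concentration for 50% growth inhibition is given as GI50.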 The source made the active and inactive calls. No stated cut-off is given here; in the data, active = GI50 up to about 1.1 µM and inactive = higher.
Key:
Experiment in all cases: NCI tumour cell line growth inhibition, 48 h
[1] = test system: UACC-62
[2] = test system: SW-620
[3] = test system: BT-549
[4] = test system: SF-539
[5] = test system: IGROV-1
[6] = test system: NCI/ADR-RES
[7] = test system: MDA-MB-231
[8] = test system: OVCAR-5
[9] = test system: Hs-578T
[10] = test system: RXF 393
[11] = test system: HCC 2998
[12] = test system: ACHN
[13] = test system: PC-3
[14] = test system: HCT-116
[15] = test system: SK-MEL-2
[16] = test system: NCI-H23
[17] = test system: K562

Compound	GI50 [1]	GI50 [2]	GI50 [3]	GI50 [4]	GI50 [5]	GI50 [6]	GI50 [7]	GI50 [8]	GI50 [9]	GI50 [10]	GI50 [11]	GI50 [12]	GI50 [13]	GI50 [14]	GI50 [15]	GI50 [16]	GI50 [17]
C[C@H]1CC[C@@H]2[C@@H](C)[C@H]3[C@H](C[C@H]4[C@@H]5CC=C6C[C@@H](O)CC[C@]6(C)[C@H]5CC[C@]34C)N2C1	43 µM (inactive)	75.2 µM (inactive)	93.1 µM (inactive)	65.9 µM (inactive)	27.9 µM (inactive)	54.7 µM (inactive)	39.4 µM (inactive)	> 100 µM (inactive)	33.3 µM (inactive)	19.4 µM (inactive)	97.1 µM (inactive)	59.8 µM (inactive)	50.9 µM (inactive)	36.4 µM (inactive)	> 100 µM (inactive)	88.5 µM (inactive)	–
Cc1ccc(CC(Cc2ccccc2C)C(=O)O)c(C(=O)O)c1 (stereo unspecified)	–	> 100 µM (inactive)	> 100 µM (inactive)	> 100 µM (inactive)	> 100 µM (inactive)	> 100 µM (inactive)	> 100 µM (inactive)	> 100 µM (inactive)	> 100 µM (inactive)	> 100 µM (inactive)	> 100 µM (inactive)	> 100 µM (inactive)	> 100 µM (inactive)	> 100 µM (inactive)	> 100 µM (inactive)	> 100 µM (inactive)	> 100 µM (inactive)
O=C(O)c1ccccc1/C=N\N=C1NCCCCN1	> 100 µM (inactive)	> 100 µM (inactive)	> 100 µM (inactive)	> 100 µM (inactive)	> 100 µM (inactive)	> 100 µM (inactive)	> 100 µM (inactive)	> 100 µM (inactive)	> 100 µM (inactive)	–	> 100 µM (inactive)	> 100 µM (inactive)	> 100 µM (inactive)	> 100 µM (inactive)	> 100 µM (inactive)	> 100 µM (inactive)	> 100 µM (inactive)
CC(C)(C)c1ccc(-c2nnc(-c3cc(C#N)cc(-c4nnc(-c5ccc(C(C)(C)C)cc5)o4)c3)o2)cc1	> 100 µM (inactive)	> 100 µM (inactive)	> 100 µM (inactive)	–	> 100 µM (inactive)	> 100 µM (inactive)	> 100 µM (inactive)	> 100 µM (inactive)	33 µM (inactive)	0.0107 µM (active)	> 100 µM (inactive)	> 100 µM (inactive)	> 100 µM (inactive)	> 100 µM (inactive)	> 100 µM (inactive)	> 100 µM (inactive)	> 100 µM (inactive)
CC#CC#C/C(=C/C=CC(=O)OC)SC	> 100 µM (inactive)	> 100 µM (inactive)	> 100 µM (inactive)	> 100 µM (inactive)	> 100 µM (inactive)	> 100 µM (inactive)	> 100 µM (inactive)	> 100 µM (inactive)	> 100 µM (inactive)	–	> 100 µM (inactive)	–	> 100 µM (inactive)	> 100 µM (inactive)	> 100 µM (inactive)	–	> 100 µM (inactive)
O=C(O)C(/C=C/c1ccccc1)c1ccccc1 (stereo unspecified)	> 100 µM (inactive)	> 100 µM (inactive)	> 100 µM (inactive)	> 100 µM (inactive)	> 100 µM (inactive)	> 100 µM (inactive)	> 100 µM (inactive)	> 100 µM (inactive)	> 100 µM (inactive)	> 100 µM (inactive)	–	> 100 µM (inactive)	> 100 µM (inactive)	> 100 µM (inactive)	> 100 µM (inactive)	> 100 µM (inactive)	84.3 µM (inactive)
O=[N+]([O-])c1c(O)c2nonc2c2nn(-c3ccccc3)nc12	> 100 µM (inactive)	> 100 µM (inactive)	> 100 µM (inactive)	> 100 µM (inactive)	> 100 µM (inactive)	> 100 µM (inactive)	> 10 µM (inactive)	> 100 µM (inactive)	65.5 µM (inactive)	–	> 100 µM (inactive)	> 100 µM (inactive)	> 100 µM (inactive)	> 100 µM (inactive)	> 100 µM (inactive)	> 100 µM (inactive)	> 100 µM (inactive)
Cc1nc(Cl)c2sc(=S)n(-c3ccc(F)cc3)c2n1	11.8 µM (inactive)	3.7 µM (inactive)	2.59 µM (inactive)	–	1.74 µM (inactive)	6.56 µM (inactive)	7.98 µM (inactive)	10.8 µM (inactive)	1.86 µM (inactive)	7.85 µM (inactive)	4.49 µM (inactive)	13.9 µM (inactive)	19.9 µM (inactive)	1.75 µM (inactive)	12.8 µM (inactive)	1.27 µM (inactive)	7.6 µM (inactive)
